In the supplement of paper PMC10307832:

Tests used:
Test in all cases: relative viability (nuclei count vs DMSO), 5 days (fraction); higher = more cells survive
A-427 = system: A-427
Summary of the method: (§1)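 Lung cancer cell lines in 1536-well plates were dosed by pin tool the day after seeding, either with one drug alone or with a fixed anchor-drug dose plus five library-drug doses (not always all listed) in √10 steps. After 5 days, cells were fixed and their nuclei stained in one step (final 0.05% Triton X-100, 1% formaldehyde, 1 ug/ml Hoechst), then counted on 4× images. Relative viability is the nuclei count in treated wells divided by that in vehicle wells. Values are medians of duplicate plates.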

HCC-15 = system: HCC-15
Summary of the method: as §1

HCC-78 = system: HCC-78
Summary of the method: as §1

HOP-62 = system: HOP-62
Summary of the method: as §1

LC-2-ad = system: LC-2-ad
Summary of the method: as §1

LOU-NH91 = system: LOU-NH91
Summary of the method: as §1

LXF-289 = system: LXF-289
Summary of the method: as §1

NCI-H1734 = system: NCI-H1734
Summary of the method: as §1

NCI-H1755 = system: NCI-H1755
Summary of the method: as §1

NCI-H1792 = system: NCI-H1792
Summary of the method: as §1

NCI-H1915 = system: NCI-H1915
Summary of the method: as §1

NCI-H1975 = system: NCI-H1975
Summary of the method: as §1

NCI-H2126 = system: NCI-H2126
Summary of the method: as §1

NCI-H2228 = system: NCI-H2228
Summary of the method: as §1

NCI-H2342 = system: NCI-H2342
Summary of the method: as §1

NCI-H2347 = system: NCI-H2347
Summary of the method: as §1

NCI-H358 = system: NCI-H358
Summary of the method: as §1

NCI-H460 = system: NCI-H460
Summary of the method: as §1

NCI-H647 = system: NCI-H647
Summary of the method: as §1

PC-3 [JPC-3] = system: PC-3 [JPC-3]
Summary of the method: as §1

RERF-LC-KJ = system: RERF-LC-KJ
Summary of the method: as §1

SK-LU-1 = system: SK-LU-1
Summary of the method: as §1

SW 1573 = system: SW 1573
Summary of the method: as §1

C=C1C(=O)O[C@@H](CCCCCCCC)[C@@H]1C(=O)O [C-75] + N=C(N)NC(=N)NCCc1ccccc1 [Phenformin] (partner 250 µM)
relative viability (A-427; first compound 0.08 µM): 0.361
relative viability (A-427; first compound 0.253 µM): 0.342
relative viability (A-427; first compound 0.8 µM): 0.33
relative viability (A-427; first compound 2.53 µM): 0.284
relative viability (A-427; first compound 8 µM): 0.303
relative viability (HCC-15; first compound 0.08 µM): 0.489
relative viability (HCC-15; first compound 0.253 µM): 0.469
relative viability (HCC-15; first compound 0.8 µM): 0.42
relative viability (HCC-15; first compound 2.53 µM): 0.377
relative viability (HCC-15; first compound 8 µM): 0.446
relative viability (HCC-78; first compound 0.08 µM): 0.844
relative viability (HCC-78; first compound 0.253 µM): 0.849
relative viability (HCC-78; first compound 0.8 µM): 0.544
relative viability (HCC-78; first compound 2.53 µM): 0.595
relative viability (HCC-78; first compound 8 µM): 0.625
relative viability (HOP-62; first compound 0.08 µM): 0.691
relative viability (HOP-62; first compound 0.253 µM): 0.718
relative viability (HOP-62; first compound 0.8 µM): 0.647
relative viability (HOP-62; first compound 2.53 µM): 0.616
relative viability (HOP-62; first compound 8 µM): 0.601
relative viability (LC-2-ad; first compound 0.08 µM): 0.561
relative viability (LC-2-ad; first compound 0.253 µM): 0.566
relative viability (LC-2-ad; first compound 0.8 µM): 0.544
relative viability (LC-2-ad; first compound 2.53 µM): 0.483
relative viability (LC-2-ad; first compound 8 µM): 0.54
relative viability (LOU-NH91; first compound 0.08 µM): 0.715
relative viability (LOU-NH91; first compound 0.253 µM): 0.741
relative viability (LOU-NH91; first compound 0.8 µM): 0.612
relative viability (LOU-NH91; first compound 2.53 µM): 0.532
relative viability (LOU-NH91; first compound 8 µM): 0.749
relative viability (LXF-289; first compound 0.08 µM): 0.504
relative viability (LXF-289; first compound 0.253 µM): 0.543
relative viability (LXF-289; first compound 0.8 µM): 0.514
relative viability (LXF-289; first compound 2.53 µM): 0.452
relative viability (LXF-289; first compound 8 µM): 0.507
relative viability (NCI-H1734; first compound 0.08 µM): 0.413
relative viability (NCI-H1734; first compound 0.253 µM): 0.427
relative viability (NCI-H1734; first compound 0.8 µM): 0.356
relative viability (NCI-H1734; first compound 2.53 µM): 0.286
relative viability (NCI-H1734; first compound 8 µM): 0.283
relative viability (NCI-H1755; first compound 0.08 µM): 0.633
relative viability (NCI-H1755; first compound 0.253 µM): 0.587
relative viability (NCI-H1755; first compound 0.8 µM): 0.577
relative viability (NCI-H1755; first compound 2.53 µM): 0.529
relative viability (NCI-H1755; first compound 8 µM): 0.607
relative viability (NCI-H1792; first compound 0.08 µM): 0.236
relative viability (NCI-H1792; first compound 0.253 µM): 0.216
relative viability (NCI-H1792; first compound 2.53 µM): 0.113
relative viability (NCI-H1792; first compound 8 µM): 0.206
relative viability (NCI-H1915; first compound 0.08 µM): 0.361
relative viability (NCI-H1915; first compound 0.253 µM): 0.375
relative viability (NCI-H1915; first compound 0.8 µM): 0.368
relative viability (NCI-H1915; first compound 2.53 µM): 0.318
relative viability (NCI-H1915; first compound 8 µM): 0.325
relative viability (NCI-H1975; first compound 0.08 µM): 0.403
relative viability (NCI-H1975; first compound 0.253 µM): 0.398
relative viability (NCI-H1975; first compound 0.8 µM): 0.389
relative viability (NCI-H1975; first compound 2.53 µM): 0.345
relative viability (NCI-H1975; first compound 8 µM): 0.412
relative viability (NCI-H2126; first compound 0.08 µM): 0.505
relative viability (NCI-H2126; first compound 0.253 µM): 0.558
relative viability (NCI-H2126; first compound 0.8 µM): 0.501
relative viability (NCI-H2126; first compound 2.53 µM): 0.48
relative viability (NCI-H2126; first compound 8 µM): 0.515
relative viability (NCI-H2228; first compound 0.08 µM): 0.294
relative viability (NCI-H2228; first compound 0.253 µM): 0.304
relative viability (NCI-H2228; first compound 0.8 µM): 0.33
relative viability (NCI-H2228; first compound 2.53 µM): 0.244
relative viability (NCI-H2228; first compound 8 µM): 0.277
relative viability (NCI-H2342; first compound 0.08 µM): 0.542
relative viability (NCI-H2342; first compound 0.253 µM): 0.634
relative viability (NCI-H2342; first compound 0.8 µM): 0.664
relative viability (NCI-H2342; first compound 2.53 µM): 0.512
relative viability (NCI-H2342; first compound 8 µM): 0.524
relative viability (NCI-H2347; first compound 0.08 µM): 0.506
relative viability (NCI-H2347; first compound 0.253 µM): 0.599
relative viability (NCI-H2347; first compound 0.8 µM): 0.401
relative viability (NCI-H2347; first compound 8 µM): 0.379
relative viability (NCI-H358; first compound 0.08 µM): 0.306
relative viability (NCI-H358; first compound 0.253 µM): 0.328
relative viability (NCI-H358; first compound 0.8 µM): 0.296
relative viability (NCI-H358; first compound 2.53 µM): 0.326
relative viability (NCI-H358; first compound 8 µM): 0.215
relative viability (NCI-H460; first compound 0.08 µM): 0.511
relative viability (NCI-H460; first compound 0.253 µM): 0.534
relative viability (NCI-H460; first compound 0.8 µM): 0.501
relative viability (NCI-H460; first compound 8 µM): 0.516
relative viability (NCI-H647; first compound 0.08 µM): 0.52
relative viability (NCI-H647; first compound 0.253 µM): 0.58
relative viability (NCI-H647; first compound 0.8 µM): 0.417
relative viability (NCI-H647; first compound 2.53 µM): 0.374
relative viability (NCI-H647; first compound 8 µM): 0.382
relative viability (PC-3 [JPC-3]; first compound 0.08 µM): 0.457
relative viability (PC-3 [JPC-3]; first compound 0.253 µM): 0.468
relative viability (PC-3 [JPC-3]; first compound 0.8 µM): 0.47
relative viability (PC-3 [JPC-3]; first compound 2.53 µM): 0.48
relative viability (PC-3 [JPC-3]; first compound 8 µM): 0.503
relative viability (RERF-LC-KJ; first compound 0.08 µM): 0.427
relative viability (RERF-LC-KJ; first compound 0.253 µM): 0.452
relative viability (RERF-LC-KJ; first compound 0.8 µM): 0.398
relative viability (RERF-LC-KJ; first compound 2.53 µM): 0.469
relative viability (RERF-LC-KJ; first compound 8 µM): 0.405
relative viability (SK-LU-1; first compound 0.08 µM): 0.52
relative viability (SK-LU-1; first compound 0.253 µM): 0.524
relative viability (SK-LU-1; first compound 0.8 µM): 0.515
relative viability (SK-LU-1; first compound 2.53 µM): 0.425
relative viability (SK-LU-1; first compound 8 µM): 0.423
relative viability (SW 1573; first compound 0.08 µM): 0.462
relative viability (SW 1573; first compound 0.253 µM): 0.351
relative viability (SW 1573; first compound 0.8 µM): 0.376
relative viability (SW 1573; first compound 2.53 µM): 0.381
relative viability (SW 1573; first compound 8 µM): 0.244
